US9139587B2, “N1-pyrazolospiroketone acetyl-CoA carboxylase inhibitors” (Pfizer Inc., priority 2009, dated 2015)

Key:
[1] = biological target: T1, recombinant human ACC1 (rhACC1) (Homo sapiens, UniProt Q13085, DEL44-44); assay: recombinant hACC1 Transcreener assay (direct inhibition of ACC1 activity); type: biochemical; details: Transcreener ADP detection FP assay, 50 μM ATP, 30 μM acetyl-CoA, 120 min at 25° C.
T1 construct: recombinant baculovirus containing full length human ACC1 cDNA; made in house; host or cells: SF9 insect cells (baculovirus)
Experimental: For example direct inhibition of ACC activity, for the compound of Formula (1) was determined using preparations of recombinant human ACC1 (rhACC1) and recombinant human ACC2 (rhACC2). Representative sequences of the recombinant human ACC1 and ACC2 that can be used in the assay are provided in FIG. 1 (SEQ ID NO. 1) and FIG. 2 (SEQ. ID NO. 2), respectively. Preparation of rhACC1. Two liters of SF9 cells, infected with recombinant baculovirus containing full length human ACC1 cDNA, were suspended in ice-cold lysis buffer (25 mM Tris, pH 7.5; 150 mM NaCl; 10% glycerol; 5 mM imidazole (EMD Bioscience; Gibbstown, N.J.); 2 mM TCEP (BioVectra; Charlottetown, Canada); Benzonase nuclease (10000 U/100 g cell paste; Novagen; Madison, Wis.); EDTA-free protease inhibitor cocktail (1 tab/50 mL; Roche Diagnostics; Mannheim, Germany). Cells were lysed by 3 cycles of freeze-thaw and centrifuged at 40,000×g for 40 minutes (4° C.). Supernatant was directly loaded onto a HisTrap FF crude column (GE Healthcare; Piscataway, N.J.) and eluted with an imidazole gradient up to 0.5 M over 20 column volumes (CV). ACC1-containing fractions were pooled and diluted 1:5 with 25 mM Tris, pH 7.5, 2 mM TCEP, 10% glycerol and direct loaded onto a CaptoQ (GE Healthcare) column and eluted with an NaCl gradient up to 1 M over 20 CV's. Phosphate groups were removed from purified ACC1 by incubation with lambda phosphatase (100 U/10 μM target protein; New England Biolabs; Beverly, Mass.) for 14 hours at 4° C.; okadaic acid was added (1 μM final concentration; Roche Diagnostics) to inhibit the phosphatase. Purified ACC1 was exchanged into 25 mM Tris, pH 7.5, 2 mM TCEP, 10% glycerol, 0.5 M NaCl by 6 hour dialysis at 4° C. Aliquots were prepared and frozen at −80° C. […] The final conditions for the assay were 50 mM HEPES, pH 7.2, 10 mM MgCl2, 7.5 mM tripotassium citrate, 2 mM DTT, 0.1 mg/mL BSA, 30 μM acetyl-CoA, 50 μM ATP, and 10 mM KHCO3 Typically, a 10 μl reaction was run for 120 min at 25° C., and 10 μl of Transcreener stop and detect buffer was added and the combination incubated at room temp for an additional 1 hour. The data was acquired on a Envision Fluorescence reader (Perkinelmer) using a 620 excitation Cy5 FP general dual mirror, 620 excitation Cy5 FP filter, 688 emission (S) and a 688 (P) emission filter.

[2] = biological target: T2, recombinant human ACC2 (rhACC2) (Homo sapiens, UniProt O00763, V2141I); assay: recombinant hACC2 Transcreener assay (direct inhibition of ACC2 activity); type: biochemical; details: Transcreener ADP detection FP assay, 50 μM ATP, 30 μM acetyl-CoA, 50 min at 25° C.
T2 construct: a full length Cytomax clone of ACC2 was purchased from Cambridge Bioscience Limited; made in house; host or cells: CHO cells (tetracycline-induced, pcDNA5 FRT TO-TOPO)
Experimental: For example direct inhibition of ACC activity, for the compound of Formula (1) was determined using preparations of recombinant human ACC1 (rhACC1) and recombinant human ACC2 (rhACC2). Representative sequences of the recombinant human ACC1 and ACC2 that can be used in the assay are provided in FIG. 1 (SEQ ID NO. 1) and FIG. 2 (SEQ. ID NO. 2), respectively.
[3] Preparation of rhACC2. Human ACC2 inhibition was measured using purified recombinant human ACC2 (hrACC2). Briefly, a full length Cytomax clone of ACC2 was purchased from Cambridge Bioscience Limited and was sequenced and subcloned into PcDNA5 FRT TO-TOPO (Invitrogen, Carlsbad, Calif.). The ACC2 was expressed in CHO cells by tetracycline induction and harvested in 5 liters of DMEM/F12 with glutamine, biotin, hygromycin and blasticidin with 1 μg/mL tetracycline (Invitrogen, Carlsbad, Calif.). The conditioned medium containing ACC2 was then applied to a Softlink Soft Release Avidin column (Promega, Madison, Wis.) and eluted with 5 mM biotin. 4 mgs of ACC2 were eluted at a concentration of 0.05 mg/mL (determined by A280) with an estimated purity of 95% ([…]). The purified ACC2 was dialyzed in 50 mM Tris, 200 mM NaCl, 4 mM DTT, 2 mM EDTA, and 5% glycerol. The pooled protein was frozen and stored at −80° C., with no loss of activity upon thawing. For measurement of ACC2 activity and assessment of ACC2 inhibition, test compounds were dissolved in DMSO and added to the rhACC2 enzyme as a 5× stock with a final DMSO concentration of 1%.
[4] Measurement of human ACC2 inhibition. hACC2 was assayed in a Costar #3676 (Costar, Cambridge, Mass.) 384-well plate using the Transcreener ADP detection FP assay kit (Bellbrook Labs, Madison, Wisconsin) using the manufacturer's recommended conditions for a 50 uM ATP reaction. The final conditions for the assay were 50 mM HEPES, pH 7.2, 5 mM MgCl2, 5 mM tripotassium citrate, 2 mM DTT, 0.1 mg/mL BSA, 30 μM acetyl-CoA, 50 μM ATP, and 8 mM KHCO3 Typically, a 10 μl reaction was run for 50 min at 25° C., and 10 μl of Transcreener stop and detect buffer was added and the combination incubated at room temp for an additional 1 hour. The data was acquired on an Envision Fluorescence reader (Perkinelmer) using a 620 excitation Cy5 FP general dual mirror, 620 excitation Cy5 FP filter, 688 emission (S) and a 688 (P) emission filter.

T2 sequence (O00763 whole entry V2141I): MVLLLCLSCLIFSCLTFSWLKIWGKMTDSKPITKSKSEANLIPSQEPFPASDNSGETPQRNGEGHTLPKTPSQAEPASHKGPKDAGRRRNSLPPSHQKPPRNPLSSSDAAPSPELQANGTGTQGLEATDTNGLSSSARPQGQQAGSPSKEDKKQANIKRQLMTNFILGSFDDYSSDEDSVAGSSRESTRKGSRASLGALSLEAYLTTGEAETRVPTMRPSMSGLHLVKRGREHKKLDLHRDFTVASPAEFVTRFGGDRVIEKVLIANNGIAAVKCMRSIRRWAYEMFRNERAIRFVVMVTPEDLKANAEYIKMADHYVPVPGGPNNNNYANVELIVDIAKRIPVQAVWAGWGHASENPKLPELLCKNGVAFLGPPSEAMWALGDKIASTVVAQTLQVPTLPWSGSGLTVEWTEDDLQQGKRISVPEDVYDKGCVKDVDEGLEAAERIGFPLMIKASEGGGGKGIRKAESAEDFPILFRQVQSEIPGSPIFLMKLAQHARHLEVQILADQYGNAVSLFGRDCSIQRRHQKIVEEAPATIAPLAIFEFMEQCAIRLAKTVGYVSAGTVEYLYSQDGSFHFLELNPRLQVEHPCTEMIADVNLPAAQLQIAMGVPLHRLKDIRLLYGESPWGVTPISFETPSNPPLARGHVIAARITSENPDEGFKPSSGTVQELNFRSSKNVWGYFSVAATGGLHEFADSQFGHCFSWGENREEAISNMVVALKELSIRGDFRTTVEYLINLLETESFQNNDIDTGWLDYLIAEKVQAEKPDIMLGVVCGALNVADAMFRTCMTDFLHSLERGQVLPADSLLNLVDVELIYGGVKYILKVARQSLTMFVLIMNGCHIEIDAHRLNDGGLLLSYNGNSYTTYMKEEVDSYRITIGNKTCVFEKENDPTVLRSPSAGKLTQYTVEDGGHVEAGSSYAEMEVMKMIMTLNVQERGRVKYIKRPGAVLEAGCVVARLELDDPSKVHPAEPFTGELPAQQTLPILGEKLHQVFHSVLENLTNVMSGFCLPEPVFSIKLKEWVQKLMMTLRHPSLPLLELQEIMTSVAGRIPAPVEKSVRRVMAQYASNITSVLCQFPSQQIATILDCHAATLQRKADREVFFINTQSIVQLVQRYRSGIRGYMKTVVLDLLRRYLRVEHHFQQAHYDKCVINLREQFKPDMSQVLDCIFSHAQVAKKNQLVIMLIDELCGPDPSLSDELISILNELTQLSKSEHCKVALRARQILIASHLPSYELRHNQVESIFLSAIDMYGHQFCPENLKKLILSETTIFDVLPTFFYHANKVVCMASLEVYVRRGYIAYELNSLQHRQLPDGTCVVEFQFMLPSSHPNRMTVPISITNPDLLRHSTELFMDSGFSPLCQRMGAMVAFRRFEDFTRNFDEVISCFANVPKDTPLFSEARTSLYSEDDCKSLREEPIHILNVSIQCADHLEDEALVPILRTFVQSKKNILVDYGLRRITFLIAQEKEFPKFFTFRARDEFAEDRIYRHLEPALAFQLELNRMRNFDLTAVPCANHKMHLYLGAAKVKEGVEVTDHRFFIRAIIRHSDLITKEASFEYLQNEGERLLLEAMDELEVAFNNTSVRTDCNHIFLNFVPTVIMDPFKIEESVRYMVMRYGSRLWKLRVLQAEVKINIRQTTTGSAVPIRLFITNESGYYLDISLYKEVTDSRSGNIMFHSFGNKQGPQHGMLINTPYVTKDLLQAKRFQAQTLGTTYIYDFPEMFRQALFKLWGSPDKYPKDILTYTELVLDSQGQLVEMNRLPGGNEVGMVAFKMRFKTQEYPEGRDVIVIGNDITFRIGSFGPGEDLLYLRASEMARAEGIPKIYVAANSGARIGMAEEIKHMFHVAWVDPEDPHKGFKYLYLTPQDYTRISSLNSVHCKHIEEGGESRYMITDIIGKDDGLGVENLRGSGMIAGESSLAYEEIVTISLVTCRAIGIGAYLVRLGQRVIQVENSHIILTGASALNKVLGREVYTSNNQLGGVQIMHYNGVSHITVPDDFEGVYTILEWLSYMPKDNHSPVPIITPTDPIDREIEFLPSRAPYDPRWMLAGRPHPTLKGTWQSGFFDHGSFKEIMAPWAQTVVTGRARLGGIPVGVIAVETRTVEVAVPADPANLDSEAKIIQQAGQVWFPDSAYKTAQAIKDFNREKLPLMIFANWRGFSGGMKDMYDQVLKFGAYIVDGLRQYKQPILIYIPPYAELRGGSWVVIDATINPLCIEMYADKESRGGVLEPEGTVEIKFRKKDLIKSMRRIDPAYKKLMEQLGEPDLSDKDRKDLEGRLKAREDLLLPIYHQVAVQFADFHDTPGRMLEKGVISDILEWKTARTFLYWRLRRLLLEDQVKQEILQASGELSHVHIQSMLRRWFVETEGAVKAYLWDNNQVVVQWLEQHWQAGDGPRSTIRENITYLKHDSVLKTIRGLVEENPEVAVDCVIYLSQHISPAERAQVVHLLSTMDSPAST

`CC(C)n1ncc2c1C(=O)CC1(CCN(C(=O)c3c(O)cnc4ccccc34)CC1)C2` [Example 2A-70] was tested, and the IC50 [1] was 9790 nM and the IC50 [2] was 3760 nM.

Compound `CC(C)n1ncc2c1C(=O)CC1(CCN(C(=O)c3c[nH]c4ncccc34)CC1)C2` [Example 2A-71] has an IC50 [1] of 1060 nM and an IC50 [2] of 387 nM.

Compound `CC(C)n1ncc2c1C(=O)CC1(CCN(C(=O)c3ccc4cnccc4c3O)CC1)C2` [Example 2A-72] has an IC50 [1] of 599 nM and an IC50 [2] of 290 nM.

`Cc1nn(C(C)C)c2c1CC1(CCN(C(=O)c3ccc4[nH]ncc4c3)CC1)CC2=O` [Example 2A-75] was tested, and the IC50 [1] was 113 nM and the IC50 [2] was 37.7 nM.

`CC(C)n1nc(C#N)c2c1C(=O)CC1(CCN(C(=O)c3ccc4[nH]ncc4c3)CC1)C2` [Example 2A-76] showed an IC50 [1] of 6620 nM and an IC50 [2] of 1500 nM.

Work on `CC(C)(C)n1nc(C#N)c2c1C(=O)CC1(CCN(C(=O)c3ccc4[nH]ncc4c3)CC1)C2` [Example 2A-77] yielded an IC50 [1] of 6160 nM and an IC50 [2] of 1300 nM.

`CC(C)(C)n1nc(C#N)c2c1C(=O)CC1(CCN(C(=O)c3ccc4[nH]ncc4c3)CC1)C2` [Example 2A-78] showed an IC50 [1] of 3840 nM and an IC50 [2] of 1270 nM.

`Cc1nc2ccc(C(=O)N3CCC4(CC3)CC(=O)c3c(cnn3C(C)C)C4)cc2[nH]1` [Example 3A-1, 1-isopropyl-1′-(2-methyl-1H-benzo[d]imidazole-5-carbonyl)-4,6-dihydrospiro[indazole-5,4′-piperidin]-7(1H)-one] showed an IC50 [1] of 96.1 nM and an IC50 [2] of 48.6 nM.

For `CC(C)n1ncc2c1C(=O)C(C)(C)C1(CCN(C(=O)c3ccc4[nH]ncc4c3)CC1)C2` [Example 6A-1, 1′-(1H-indazole-5-carbonyl)-1-isopropyl-6,6-dimethyl-4,6-dihydrospiro[indazole-5,4′-piperidin]-7(1H)-one], the IC50 [1] was 1530 nM and the IC50 [2] was 373 nM.

In the case of `Cc1nn(C(C)C)c2c1CC1(CCN(C(=O)c3ccc4[nH]cnc4c3)CC1)CC2=O` [Example 7A-1, 1′-(1H-benzo[d]imidazole-5-carbonyl)-1-isopropyl-3-methyl-4,6-dihydrospiro[indazole-5,4′-piperidin]-7(1H)-one], the IC50 [1] is reported as 63.2 nM and the IC50 [2] is reported as 39.8 nM.

Compound `CC(C)n1nc(C#N)c2c1C(=O)CC1(CCN(C(=O)c3ccc4[nH]cnc4c3)CC1)C2` [Example 8A-1, 1′-(1H-benzo[d]imidazole-5-carbonyl)-1-isopropyl-7-oxo-1,4,6,7-tetrahydrospiro[indazole-5,4′-piperidine]-3-carbonitrile] has an IC50 [1] of 7620 nM and an IC50 [2] of 1660 nM.

`O=C1CC2(CCN(C(=O)c3ccc4[nH]ncc4c3)CC2)Cc2cnn(C3COC3)c21` [Example 9A-1, 1′-(1H-indazole-5-carbonyl)-1-(oxetan-3-yl)-4,6-dihydrospiro[indazole-5,4′-piperidin]-7(1H)-one] was tested, and the IC50 [1] was 704 nM and the IC50 [2] was 264 nM.

`CC(C)n1ncc2c1C(=O)CC1(CCN(C(=O)c3ccc4[nH]ncc4c3)CC1)C2` [Example 10A-1, 1′-(1H-indazole-5-carbonyl)-1-isopropyl-4,6-dihydrospiro[indazole-5,4′-piperidin]-7(1H)-one] showed an IC50 [1] of 43.8 nM and an IC50 [2] of 22.3 nM.

`CC(C)n1ncc2c1C(=O)CC1(CCN(C(=O)c3ccc(-c4ncc[nH]4)cc3)CC1)C2` [Example 11A-1, 1′-(4-(1H-imidazol-2-yl)benzoyl)-1-isopropyl-4,6-dihydrospiro[indazole-5,4′-piperidin]-7(1H)-one] gave an IC50 [1] of 147 nM and an IC50 [2] of 31.8 nM.

Work on `Cc1cc(C(=O)N2CCC3(CC2)CC(=O)c2c(cnn2C(C)C)C3)c(N)c(C)n1` [Example 11A-2] yielded an IC50 [1] of 1480 nM and an IC50 [2] of 658 nM.

Work on `CC(C)n1ncc2c1C(=O)CC1(CCN(C(=O)c3cccc(-c4c[nH]cn4)c3)CC1)C2` [Example 11A-3] yielded an IC50 [1] of 74.7 nM and an IC50 [2] of 25.4 nM.

`Cc1cc(C(=O)N2CCC3(CC2)CC(=O)c2c(cnn2C(C)C)C3)n(-c2cccnc2)n1` [Example 11A-4] showed an IC50 [1] of 19600 nM and an IC50 [2] of 5800 nM.

With `Cc1cc(C(=O)N2CCC3(CC2)CC(=O)c2c(cnn2C(C)(C)C)C3)n(-c2cccnc2)n1` [Example 11A-5] the IC50 [1] was 16400 nM and the IC50 [2] was 13200 nM.

With `CC(C)n1ncc2c1C(=O)CC1(CCN(C(=O)c3nn(-c4ccccc4)nc3N)CC1)C2` [Example 11A-6] the IC50 [1] was 989 nM and the IC50 [2] was 459 nM.

In the case of `CC(C)(C)n1ncc2c1C(=O)CC1(CCN(C(=O)c3cccc(-c4c[nH]cn4)c3)CC1)C2` [Example 11A-7], the IC50 [1] is reported as 36.8 nM and the IC50 [2] is reported as 10.4 nM.

`CC(C)n1ncc2c1C(=O)CC1(CCN(C(=O)c3ccc4[nH]nc(C#N)c4c3)CC1)C2` [Example 11A-9] gave an IC50 [1] of 34.4 nM and an IC50 [2] of 19.7 nM.

In the case of `CC(C)n1ncc2c1C(=O)CC1(CCN(C(=O)c3cccnc3C(N)=O)CC1)C2` [Example 11A-10], the IC50 [1] is reported as 6670 nM and the IC50 [2] is reported as 789 nM.

Compound `CC(C)(C)n1ncc2c1C(=O)CC1(CCN(C(=O)c3cccnc3C(N)=O)CC1)C2` [Example 11A-11] has an IC50 [1] of 10600 nM and an IC50 [2] of 1450 nM.

Work on `CC(C)(C)n1ncc2c1C(=O)CC1(CCN(C(=O)c3nn(-c4ccccc4)nc3N)CC1)C2` [Example 11A-12] yielded an IC50 [1] of 152 nM and an IC50 [2] of 850 nM.

`Cc1cccn2cc(C(=O)N3CCC4(CC3)CC(=O)c3c(cnn3C(C)C)C4)nc12` [Example 11A-14] gave an IC50 [1] of 418 nM and an IC50 [2] of 253 nM.

In the case of `CC(C)n1ncc2c1C(=O)CC1(CCN(C(=O)c3cccc(-c4cc[nH]n4)c3)CC1)C2` [Example 11A-15], the IC50 [1] is reported as 112 nM and the IC50 [2] is reported as 43.8 nM.

For `Cc1cccn2cc(C(=O)N3CCC4(CC3)CC(=O)c3c(cnn3C(C)(C)C)C4)nc12` [Example 11A-16], the IC50 [1] was 621 nM and the IC50 [2] was 190 nM.

With `CC(C)(C)n1ncc2c1C(=O)CC1(CCN(C(=O)c3cccc(-n4cccn4)c3)CC1)C2` [Example 11A-17] the IC50 [1] was 129 nM and the IC50 [2] was 48.4 nM.

For `CC(C)n1ncc2c1C(=O)CC1(CCN(C(=O)c3ccnc(-c4cc[nH]n4)c3)CC1)C2` [Example 11A-18], the IC50 [1] was 235 nM and the IC50 [2] was 56.3 nM.

Work on `CC(C)(C)n1ncc2c1C(=O)CC1(CCN(C(=O)c3c[nH]c4ncccc34)CC1)C2` [Example 11A-19] yielded an IC50 [1] of 242 nM and an IC50 [2] of 71.6 nM.

Compound `CC(C)(C)n1ncc2c1C(=O)CC1(CCN(C(=O)c3ccc(N4CCOCC4)nc3)CC1)C2` [Example 11A-22] has an IC50 [1] of 1260 nM and an IC50 [2] of 539 nM.

`CC(C)(C)n1ncc2c1C(=O)CC1(CCN(C(=O)c3cccc(-c4cc[nH]n4)c3)CC1)C2` [Example 11A-23] showed an IC50 [1] of 87.1 nM and an IC50 [2] of 20.4 nM.
